According to patent US12173026B2, “PRMT5 inhibitors” (Merck Sharp & Dohme LLC, priority 2018, dated 2024):

Tested on: symmetric dimethylation of arginine (SDMA) of PRMT5 substrates in MCF-7 cells
Assay: PRMT5 Cell Target Engagement (TE) Assay
Type: cell-based
Settings: Homo sapiens, MCF7, 72 h; MCF-7 cells treated for 3 days; nuclear SDMA by high content imaging; top concentration 10000 nM
From the text: PRMT5 Cell Target Engagement (TE) Assay
The PRMT5 TE assay is a biomarker assay for identifying compounds that inhibit symmetric dimethylation of arginine (SDMA) of PRMT5 substrates. The following substrates have been reported for PRMT5: Histone H2A and H4 R3, Histone H3 R2, Histone 1-13 R8, spliceosome Sm proteins, ribosomal protein RPS10, p53, FEN1, nucleoplasmin, nucleolin, EGFR and EBNA. The assay will focus on detecting symnetrically dimethylated nuclear proteins using high content imaging technology. Detection of the expression of symmetrically dimethylated nuclear proteins is through a mixture of primary rabbit monoclonal antibodies to SDMA (CST 13222) which in turn recognized by an Alexafluor 488 dye-conjugated anti-rabbit IgG secondary antibody. The IN Cell Analyzer 2200 or Opera-Phenix measures nuclear Alexafluor 488 fluorescent dye intensity that is directly related to the level of expression of symmetrically dimethylated nuclear proteins at the single cell level. Nuclear AF488 dye intensities are compared to the mean value for DMSO treated cells (MIN) to report percent of inhibition for each compound-treated well.
In this assay, the cell potency (EC50) of each compound was determined from a ten point (1:3 serial dilution; top compound concentration of 10000 nM) titration curve using the following outlined procedure. Each well of a BD falcon collagen coated black/clear bottom 384-well plate was seeded with 4000 MCF-7 cells in 30 pal media and allowed to attach for 5 hours. Media is ATCC-formulated Eagle's Minimum Essential Medium, Catalog No. 30-2003. The following components were added to the base medium: 0.01 mg/mL human recombinant insulin; fetal bovine serum to a final concentration of 10%. Additional 30 pal of media containing 2× compounds were added to each well. Cells were treated for 3 days in 37° C. CO2 incubator. On day 3, cells were fixed with Cytofix, permeabilized with 0.4% Triton-X-100/Cytofix, and washed with D-PBS without Ca/Mg. Cells were blocked with Licor Odessey blocking reagent for 1 hour at room temperature, followed by incubation with anti-SDMA (1:1000) antibody at 4° C. overnight. 1° antibody was removed, followed by three washings with DPBS without Ca/Mg and 0.05% Tween20. Hoechst (5 μg/mL), Cell Mask deep stain (1:2000) and Alexa488-conjugated goat anti-rabbit IgG (2 μg/mL) was added for 1 hour at room temperature. A final washing step (three washes) was performed before sealing plate for imaging on in Cell Analyzer 2200 or Opera-Phenix. Images from analyzer were uploaded to Columbus for image analysis. IC50 values were determined by 4 parameters robust fit of percent fluorescence units vs. (Log 10) compound concentrations.

Row | EC50 [nM] | Compound
1 | 47 | CNc1ncnc2c1ccn2[C@@H]1O[C@@H]2[C@H](Cc3ccc4cc(F)c(N)nc4c3)CC[C@]2(O)[C@H]1O [Example 95, (2R,3R,3aS,6S,6aR)-6-((2-amino-3-fluoroquinolin-7-yl)methyl)-2-(4-(methylamino)-7H-pyrrolo[2,3-d]pyrimidin-7-yl)hexahydro-3aH-cyclopenta[b]furan-3,3a-diol]
2 | 13.1 | Cc1ncnc2c1ccn2[C@@H]1O[C@@H]2[C@H](Cc3ccc4cc(F)c(N)nc4c3)CC[C@]2(O)[C@H]1O [Example 123, (2R,3R,3aS,6S,6aR)-6-((2-amino-3-fluoroquinolin-7-yl)methyl)-2-(4-methyl-7H-pyrrolo[2,3-d]pyrimidin-7-yl)hexahydro-3aH-cyclopenta[b]furan-3,3a-diol]
3 | 0.5 | Cc1ncnc2c1ccn2[C@@H]1O[C@@H]2[C@H](Cc3ccc4cc(Br)c(N)nc4c3)CC[C@]2(O)[C@H]1O [Example 8, (2R,3R,3aS,6S,6aR)-6-((2-amino-3-bromoquinolin-7-yl)methyl)-2-(4-methyl-7H-pyrrolo[2,3-d]pyrimidin-7-yl)hexahydro-2H-cyclopenta[b]furan-3,3a-diol]
4 | 1.8 | Cc1ncnc2c1ccn2[C@@H]1O[C@@H]2[C@@H](Oc3ccc4ccc(N)nc4c3)CC[C@]2(O)[C@H]1O [Example 113, (2R,3R,3aS,6S,6aR)-6-((2-aminoquinolin-7-yl)oxy)-2-(4-methyl 7H-pyrrolo[2,3-d]pyrimidin-7-yl)hexahydro-2H-cyclopenta[b]furan-3,3a-diol]
5 | 35.8 | Cc1ncnc2c1ccn2[C@@H]1O[C@@H]2[C@@H](Cc3ccc4cc(Br)c(N)nc4c3)OC[C@]2(O)[C@H]1O [Example 134, (2R,3R,3aS,6R,6aR)-6-((2-amino-3-bromoquinolin-7-yl)methyl)-2-(4-methyl-7H-pyrrolo[2,3-d]pyrimidin-7-yl)tetrahydrofuro[3,4-b]furan-3,3a(4H)-diol]
6 | 5 | Nc1ncnc2c1ccn2[C@@H]1O[C@@H]2[C@@H](Oc3ccc4cc5c(nc4c3)NCC5)CC[C@]2(O)[C@H]1O [Example 75, (2R,3R,3aS,6S,6aR)-2-(4-amino-7H-pyrrolo[2,3-d]pyrimidin-7-yl)-6-((2,3-dihydro-1H-pyrrolo[2,3-b]quinolin-7-yl)oxy)hexahydro-3aH-cyclopenta[b]furan-3,3a-diol]
7 | 1 | Nc1ncnc2c1ccn2[C@@H]1O[C@@H]2[C@@H](Oc3ccc4ccc(NCC5CC5)nc4c3)CC[C@]2(O)[C@H]1O [Example 58, (2R,3R,3aS,6S,6aR)-2-(4-amino-7H-pyrrolo[2,3-d]pyrimidin-7-yl)-6-((2-((cyclopropylmethyl)amino)quinolin-7-yl)oxy)hexahydro-3aH-cyclopenta[b]furan-3,3a-diol]
8 | 1.5 | Cc1cn([C@@H]2O[C@@H]3[C@@H](Oc4ccc5cc(Br)c(N)nc5c4)CC[C@]3(O)[C@H]2O)c2ncnc(N)c12 [Example 60, (2R,3R,3aS,6S,6aR)-6-((2-amino-3-bromoquinolin-7-yl)oxy)-2-(4-amino-5-methyl-7H-pyrrolo[2,3-d]pyrimidin-7-yl)hexahydro-3aH-cyclopenta[b]furan-3,3a-diol]
9 | 32.4 | Nc1nc2cc(O[C@H]3CC[C@@]4(O)[C@@H]3O[C@@H](n3ccc5cncnc53)[C@@H]4O)ccc2cc1Br [Example 85, (2R,3R,3aS,6S,6aR)-6-((2-amino-3-bromoquinolin-7-yl)oxy)-2-(7H-pyrrolo[2,3-d]pyrimidin-7-yl)hexahydro-3aH-cyclopenta[b]furan-3,3a-diol]
10 | 272 | C[C@]1(COc2ccc3cccnc3c2)O[C@@H](n2ccc3c(N)ncnc32)[C@H](O)[C@@H]1O [Example 98, (2R,3S,4R,5R)-5-(4-amino-7H-pyrrolo[2,3-d]pyrimidin-7-yl)-2-methyl-2-((quinolin-7-yloxy)methyl)tetrahydrofuran-3,4-diol]
11 | 0.5 | Cc1cc2ccc(OC[C@H]3C[C@@H](n4ccc5c(C)ncnc54)[C@H](O)[C@]3(C)O)cc2nc1N [Example 106, (1R,2S,3R,5R)-5-(((2-amino-3-methylquinolin-7-yl)oxy)methyl)-1-methyl-3-(4-methyl-7H-pyrrolo[2,3-d]pyrimidin-7-yl)cyclopentane-1,2-diol]
12 | 19 | Nc1nc2cc(O[C@H]3CC[C@@]4(O)[C@@H]3O[C@@H](n3ccc5c(Cl)ncnc53)[C@@H]4O)ccc2cc1Br [Example 5, (2R,3R,3aS,6S,6aR)-6-((2-amino-3-bromoquinolin-7-yl)oxy)-2-(4-chloro-7H-pyrrolo[2,3-d]pyrimidin-7-yl)hexahydro-2H-cyclopenta[b]furan-3,3a-diol]

The remaining lines, values behind:

Row | Compound | EC50 [nM]
13 | Cc1nc(N)c2ccn([C@@H]3C[C@@H]4[C@H](Cc5ccc6cc(Br)c(N)nc6c5)CC[C@]4(O)[C@H]3O)c2n1 [Example 37, (1S,2R,3aR,4S,6aR)-2-(4-amino-2-methyl-7H-pyrrolo[2,3-d]pyrimidin-7-yI)-4-((2-amino-3-bromoquinolin-7-yl)methyl)hexahydropentalene-1,6a(1H)-diol] | 0.6
14 | C[C@]1(COc2ccc3cc(Br)c(N)nc3c2)C[C@@H](n2ccc3c(N)ncnc32)[C@H](O)[C@]1(C)O [Example 111, (1R,2S,3R,5R)-5-(((2-amino-3-bromoquinolin-7-yl)oxy)methyl)-3-(4-amino-7H-pyrrolo[2,3-d]pyrimidin-7-yl)-1,5-dimethylcyclopentane-1,2-diol] | 2330
15 | Nc1nc2cc(CC3OC[C@@]4(O)C3C[C@@H](n3ccc5c(N)ncnc53)[C@@H]4O)ccc2cc1Br (some centres unmarked) [Example 132] | 236
16 | Nc1nc2cc(C[C@@H]3CC[C@@]4(O)[C@@H]3O[C@@H](n3cc(F)c5c(N)ncnc53)[C@@H]4O)cc(F)c2cc1F [Example 24, (2R,3R,3aS,6S,6aR)-6-((2-amino-3,5-difluoroquinolin-7-yl)methyl)-2-(4-amino-5-fluoro-7H-pyrrolo[2,3-d]pyrimidin-7-yl)hexahydro-3aH-cyclopenta[b]furan-3,3a-diol] | 1.3
17 | Cc1ncnc2c1c(F)cn2[C@@H]1O[C@@H]2[C@H](Cc3ccc4cc(Br)c(N)nc4c3)CC[C@]2(O)[C@H]1O [Example 84, (2R,3R,3aS,6S,6aR)-6-((2-amino-3-bromoquinolin-7-yl)methyl)-2-(5-fluoro-4-methyl-7H-pyrrolo[2,3-d]pyrimidin-7-yl)hexahydro-3aH-cyclopenta[b]furan-3,3a-diol] | 7.5
18 | Cc1cc2ccc(C[C@@H]3CC[C@@]4(O)[C@@H]3O[C@@H](n3ccc5c(N)ncnc53)[C@@H]4O)cc2nc1N [Example 125, (2R,3R,3aS,6S,6aR)-6-((2-amino-3-methylquinolin-7-yl)methyl)-2-(4-amino-7H-pyrrolo[2,3-d]pyrimidin-7-yl)hexahydro-3aH-cyclopenta[b]furan-3,3a-diol] | 0.7
19 | Cc1nc(N)c2ccn([C@@H]3O[C@@H]4[C@@H](Oc5ccc6cc(Br)c(N)nc6c5)CC[C@]4(O)[C@H]3O)c2n1 [Example 63, (2R,3R,3aS,6S,6aR)-2-(4-amino-2-methyl-7H-pyrrolo[2,3-d]pynmidin-7-yl)-6-((2-amino-3-bromoquinolin-7-yl)oxy)hexahydro-3aH-cyclopenta[b]furan-3,3a-diol] | 5.6
20 | Nc1nc2cc(C[C@@H]3CC[C@@]4(O)[C@@H]3C[C@@H](n3cc(F)c5c(N)ncnc53)[C@@H]4O)ccc2cc1Cl [Example 34, (1S,2R,3aR,4S,6aR)-4-((2-amino-3-chloroquinolin-7-yl)methyl)-2-(4-amino-5-fluoro-7H-pyrrolo[2,3-d]pyrimidin-7-yl)hexahydropentalene-1,6a(1H)-diol] | 0.3
21 | Cc1ncnc2c1ccn2[C@@H]1O[C@@H]2[C@H](Oc3ccc4cc(Br)c(N)nc4c3)CC[C@]2(O)[C@H]1O [Example 129, (2R,3R,3aS,6R,6aR)-6-((2-amino-3-bromoquinolin-7-yl)oxy)-2-(4-methyl-7H-pyrrolo[2,3-d]pyrimidin-7-yl)hexahydro-3aH-cyclopenta[b]furan-3,3a-diol] | 10000
22 | Cc1ncnc2c1ccn2[C@@H]1C[C@@H]2[C@H](Cc3ccc4cc(Br)c(N)nc4c3)CC[C@]2(O)[C@H]1O [Example 19, (1S,2R,3aR,4S,6aR)-4-((2-amino-3-bromoquinolin-7-yl)methyl)-2-(4-methyl-7H-pyrrolo[2,3-d]pyrimidin-7-yl)hexahydropentalene-1,6a(1H)-diol] | 1.1
23 | C[C@@]1(CCc2ccc3cc(F)c(N)nc3c2)C[C@@H](n2ccc3c(N)ncnc32)[C@H](O)[C@@H]1O [Example 116, (1S,2R,3R,5R)-3-(2-(2-amino-3-fluoroquinolin-7-yl)ethyl)-5-(4-amino-7H-pyrrolo[2,3-d]pyrimidin-7-yl)-3-methylcyclopentane-1,2-diol] | 53.7
